Experimental findings from the NIST ThermoML archive (doi:10.1021/je200252c) are described below.

Structures are written as SMILES. Numbers after ± are expanded uncertainties.

The data set in a line: Molar enthalpy of transition or fusion. As to conditions: Crystal; DSC.

As to `c1ccc2c(c1)OP1(=NP3(=NP4(=N1)Oc1ccccc1O4)Oc1ccccc1O3)O2` [tris(o-phenylenedioxy)cyclotriphosphazene], the “Molar enthalpy of transition or fusion” value was determined as 4.67 ± 0.143 kcal/mol.
